{"source": "patent US20230159509A1", "about": "(Amathus Therapeutics, Inc., priority 2020, published 2023)", "key": {"TRAP1 enzyme": {"target": "T1, TRAP1 enzyme (Homo sapiens, UniProt Q12931)", "T1 construct": "150 nM Trap1 enzyme was incubated with various concentrations of the test compound", "T1 sequence (Q12931 60-704)": "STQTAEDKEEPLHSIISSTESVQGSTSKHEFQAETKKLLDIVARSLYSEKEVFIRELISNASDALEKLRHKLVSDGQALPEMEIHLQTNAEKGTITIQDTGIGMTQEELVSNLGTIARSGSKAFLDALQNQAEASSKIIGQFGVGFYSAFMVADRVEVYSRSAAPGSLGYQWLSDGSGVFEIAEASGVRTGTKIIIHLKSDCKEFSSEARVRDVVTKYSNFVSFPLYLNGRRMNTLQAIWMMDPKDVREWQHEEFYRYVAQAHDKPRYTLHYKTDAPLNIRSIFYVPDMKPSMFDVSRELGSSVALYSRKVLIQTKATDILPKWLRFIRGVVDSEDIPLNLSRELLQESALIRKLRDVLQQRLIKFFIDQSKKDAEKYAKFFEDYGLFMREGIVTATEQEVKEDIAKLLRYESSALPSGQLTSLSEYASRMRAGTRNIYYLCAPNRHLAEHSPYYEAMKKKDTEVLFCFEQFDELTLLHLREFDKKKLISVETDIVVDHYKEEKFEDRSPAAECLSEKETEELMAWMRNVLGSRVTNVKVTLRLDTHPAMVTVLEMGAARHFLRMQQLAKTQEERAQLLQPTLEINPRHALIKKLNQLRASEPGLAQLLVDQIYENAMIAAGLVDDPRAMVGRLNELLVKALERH", "test": "ADP Glo assay of TRAP1 ATPase activity", "type": "biochemical", "how_it_was_run": "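Compound (0.79–100 μM) was preincubated 30 min at 37° C with 150 nM TRAP1 in 25 mM Pipes pH 7.5, 40 mM KCl, 0.05 mM MgCl2. Reaction started with 20 μM ATP, 60 min at 37° C. ADP measured by luminescence against a standard curve; activation fitted sigmoidally for EC50 and Emax.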"}, "human α-synuclein-WT": {"tested_on": "human α-synuclein-WT", "test": "α-synuclein expression and aggregation assay in differentiated neuronal ReNcell VM cells", "type": "cell-based", "protocol": "Assay measuring α-synuclein expression and aggregation in differentiated neuronal ReNcell VM cells transduced with human α-synuclein-WT were used to assess the α-synuclein modulation characteristics of compounds. To this purpose, ReNcell VM cells in growth medium (containing EGF and bFGF) were seeded in 96-well laminin-coated plates.\nThree (3) days post-seeding, on DO, the cells were refreshed with differentiation medium (devoid of EGF and bFGF, supplemented with cAMP and GDNF) and transduced with α-synuclein-encoding adenoviruses. On D1, after overnight transduction, the adenoviral medium was removed and test compound CRCs diluted in differentiation medium were added to the cells in biological duplicates (i.e. in wells located on separate assay plates processed on the same day). The assay includes a compound refreshment on D4. On each plate tested, up to six (6) vehicle control samples (0.1% DMSO) and up to six (6) positive control samples (10 μM KU 0063794) were included. Furthermore, each assay run includes an 8-point CRC of the reference compound KU 0063794. After six (6) days of compound treatment (on D7), the cells were fixed using 3.7% formaldehyde.\nAssay readouts were aggregate-selective (MJFR-14) and α/β-synuclein (Syn205) immunoreactivity, quantified using high-content analysis with algorithms for Density×Area (D×A). Co-staining of cell nuclei with DAPI is performed to quantify cell number as a measure of potential toxicity. Synuclein immunoreactivity (D×A) was normalized for the number of nuclei (nuc) per imaged well (D×A/nuc). Compound performance was evaluated by efficacy (percentage inhibition (PIN) relative to positive control) and potency (pIC50, when calculable) determination.\nAssay quality was confirmed using the following pre-set criteria: Toxicity: ≤25% nuclei loss compared to average DMSO control, Coefficient of variation (CV): ≤20% CV for DMSO control, Assay window: ≥2.0 for Syn205, and Assay window: ≥1.5 for MJF-14."}}}
{"molecule": "COc1ncc(NC(=O)c2csc(-c3ccccc3)n2)cc1S(=O)(=O)Nc1c(C)cccc1C", "note": "[compound 1178]", "values": [{"measurement": "EC50", "setting": "TRAP1 enzyme; concentration for half maximal activation, read-out: ADP GLO DRC: GeoMean EC50", "value": "< 10", "unit": "µM"}, {"measurement": "Emax", "setting": "TRAP1 enzyme; maximal percent activation, read-out: ADP GLO DRC: Mean Emax", "value": "200 to 300", "unit": "%"}, {"measurement": "MJFR-14 Max efficacy (PE)", "setting": "human α-synuclein-WT; MJFR-14", "value": 36.2}, {"measurement": "MJFR-14 Max efficacy (PIN)", "setting": "human α-synuclein-WT; MJFR-14, percentage inhibition relative to positive control (10 μM KU 0063794)", "value": 52.1}, {"measurement": "Syn205 Max efficacy (PE)", "setting": "human α-synuclein-WT; Syn205", "value": 44.9}, {"measurement": "Syn205 Max efficacy (PIN)", "setting": "human α-synuclein-WT; Syn205, percentage inhibition relative to positive control (10 μM KU 0063794)", "value": 64.7}, {"measurement": "MJFR-14 Potency (pIC50)", "setting": "human α-synuclein-WT; aggregate-selective (MJFR-14) immunoreactivity, D×A/nuc", "value": 5.6}, {"measurement": "Syn205 Potency (pIC50)", "setting": "human α-synuclein-WT; α/β-synuclein (Syn205) immunoreactivity, D×A/nuc", "value": 5.6}]}
